ΔTm data for one compound are collected here from publication PMC11357100 (2024).

Common to all, as to assay: UV melting at 295 nm
Experiment [1] deals with RET (DNA, G4) GGGGCGGGGCGGGGCGGGGT
To be noted: 10 mM KCl, 90 mM LiCl; 10 mM Tris-HCl pH 7.2; 2 µM DNA, 3 equiv. ligand; Tm 75.30 ± 0.80 to 76.4 ± 1.2.

Experiment [2] deals with c-KIT1 (DNA, G4) AGGGAGGGCGCTGGGAGGAGGG
To be noted: 10 mM KCl, 90 mM LiCl; 10 mM Tris-HCl pH 7.2; 2 µM DNA, 3 equiv. ligand; Tm 52.9 ± 1.0 to 54.40 ± 0.60.

Experiment [3] relates to catG4 (DNA, G4) TGGGTAGGGCGGGTTGGGAAA
Particulars: 10 mM KCl, 90 mM LiCl; 10 mM Tris-HCl pH 7.2; 2 µM DNA, 3 equiv. ligand; Tm 63.30 ± 0.10 to 62.80 ± 0.30.

For experiment [4], the system named is c-MYC (DNA, G4) TGAGGGTGGGTAGGGTGGGTAA
To be noted: 10 mM KCl, 90 mM LiCl; 10 mM Tris-HCl pH 7.2; 2 µM DNA, 3 equiv. ligand; Tm 79.10 ± 0.10 to 80.6 ± 1.7.

The ΔTm is the shift of the melting midpoint relative to a reference. With `COc1nc2c(N)ncnc2[n+]2ccccc12`, the ΔTm was 1.1 °C in experiment [1], 1.5 °C in experiment [2], -0.5 °C in experiment [3] and 1.5 °C in experiment [4].
